18 molecules from the NIST ThermoML archive (doi:10.1016/j.jct.2016.08.008) can be followed below.

Each structure is given as a SMILES string. ± gives the expanded uncertainty stated by the source.

This series can be described thus: activity coefficient (dimensionless); of the first substance listed, at infinite dilution; xn = mol fraction of the nth substance listed. To be noted: 101.33 kPa, Liquid, Chromatography, x1 = 0.

As to `C=CCCC` [1-pentene] + CCCCCCCCCCCCn1cc[n+](C)c1.O=S(=O)([N-]S(=O)(=O)C(F)(F)F)C(F)(F)F, the activity coefficient amounted to 1.82 ± 0.12 (318.15 K); 1.88 ± 0.13 (328.15 K); 1.93 ± 0.13 (338.15 K); 1.99 ± 0.14 (348.15 K); 2.04 ± 0.14 (358.15 K); 2.08 ± 0.14 (368.15 K).

Regarding `CCCCCCCC` [octane] + CCCCCCCCCCCCn1cc[n+](C)c1.O=S(=O)([N-]S(=O)(=O)C(F)(F)F)C(F)(F)F, the activity coefficient amounted to 4.17 ± 0.28 (318.15 K); 4.22 ± 0.29 (328.15 K); 4.27 ± 0.29 (338.15 K); 4.32 ± 0.29 (348.15 K); 4.37 ± 0.3 (358.15 K); 4.42 ± 0.3 (368.15 K).

For the molecule `C=CCCCCCCCC` [1-decene] + CCCCCCCCCCCCn1cc[n+](C)c1.O=S(=O)([N-]S(=O)(=O)C(F)(F)F)C(F)(F)F, the activity coefficient was found to be 4.18 ± 0.28 (318.15 K); 4.27 ± 0.29 (328.15 K); 4.36 ± 0.3 (338.15 K); 4.44 ± 0.3 (348.15 K); 4.52 ± 0.31 (358.15 K); 4.6 ± 0.31 (368.15 K).

As for `C#CCCC` [1-pentyne] + CCCCCCCCCCCCn1cc[n+](C)c1.O=S(=O)([N-]S(=O)(=O)C(F)(F)F)C(F)(F)F, the activity coefficient runs as follows: (318.15 K) 1.07 ± 0.07; (328.15 K) 1.11 ± 0.07; (338.15 K) 1.16 ± 0.07; (348.15 K) 1.2 ± 0.08; (358.15 K) 1.24 ± 0.08; (368.15 K) 1.28 ± 0.08.

In the case of `CO` [methanol] + CCCCCCCCCCCCn1cc[n+](C)c1.O=S(=O)([N-]S(=O)(=O)C(F)(F)F)C(F)(F)F, the activity coefficient (318.15 K) was found to be 1.29 ± 0.08; the activity coefficient (328.15 K) was 1.22 ± 0.08; the activity coefficient (338.15 K) amounted to 1.15 ± 0.07; the activity coefficient (348.15 K) worked out at 1.1 ± 0.07; the activity coefficient (358.15 K) was 1.05 ± 0.07; the activity coefficient (368.15 K) is 1.01 ± 0.06.

Regarding `CCCC(C)=O` [pentan-2-one] + CCCCCCCCCCCCn1cc[n+](C)c1.O=S(=O)([N-]S(=O)(=O)C(F)(F)F)C(F)(F)F, the activity coefficient by setting is: (318.15 K) 0.421 ± 0.035; (328.15 K) 0.445 ± 0.036; (338.15 K) 0.468 ± 0.037; (348.15 K) 0.492 ± 0.037; (358.15 K) 0.516 ± 0.038; (368.15 K) 0.539 ± 0.039.

As to `CCOCC` [diethyl ether] + CCCCCCCCCCCCn1cc[n+](C)c1.O=S(=O)([N-]S(=O)(=O)C(F)(F)F)C(F)(F)F, the activity coefficient is 0.983 ± 0.062 (318.15 K); 1.03 ± 0.06 (328.15 K); 1.07 ± 0.07 (338.15 K); 1.12 ± 0.07 (348.15 K); 1.16 ± 0.07 (358.15 K); 1.2 ± 0.08 (368.15 K).

Regarding `CC1CCCCC1` [methylcyclohexane] + CCCCCCCCCCCCn1cc[n+](C)c1.O=S(=O)([N-]S(=O)(=O)C(F)(F)F)C(F)(F)F, the activity coefficient is, setting by setting: (318.15 K) 2.42 ± 0.16; (328.15 K) 2.46 ± 0.17; (338.15 K) 2.49 ± 0.17; (348.15 K) 2.52 ± 0.17; (358.15 K) 2.55 ± 0.17; (368.15 K) 2.58 ± 0.18.

`C1CCCCC1` [cyclohexane] + CCCCCCCCCCCCn1cc[n+](C)c1.O=S(=O)([N-]S(=O)(=O)C(F)(F)F)C(F)(F)F: the activity coefficient (318.15 K) amounted to 2.14 ± 0.15; the activity coefficient (328.15 K) was 2.15 ± 0.15; the activity coefficient (338.15 K) worked out at 2.17 ± 0.15; the activity coefficient (348.15 K) is 2.18 ± 0.15; the activity coefficient (358.15 K) was determined as 2.19 ± 0.15; the activity coefficient (368.15 K) worked out at 2.21 ± 0.15.

Turning to `CC(C)CC(C)(C)C` [2,2,4-trimethylpentane] + CCCCCCCCCCCCn1cc[n+](C)c1.O=S(=O)([N-]S(=O)(=O)C(F)(F)F)C(F)(F)F, the activity coefficient came to 3.59 ± 0.24 (318.15 K); 3.66 ± 0.25 (328.15 K); 3.72 ± 0.25 (338.15 K); 3.79 ± 0.26 (348.15 K); 3.85 ± 0.26 (358.15 K); 3.91 ± 0.27 (368.15 K).

With `CC(C)OC(C)C` [diisopropyl ether] + CCCCCCCCCCCCn1cc[n+](C)c1.O=S(=O)([N-]S(=O)(=O)C(F)(F)F)C(F)(F)F, the activity coefficient came to 1.65 ± 0.11 (318.15 K); 1.72 ± 0.12 (328.15 K); 1.79 ± 0.12 (338.15 K); 1.86 ± 0.13 (348.15 K); 1.93 ± 0.13 (358.15 K); 1.99 ± 0.14 (368.15 K).

In the case of `CCc1ccccc1` [ethylbenzene] + CCCCCCCCCCCCn1cc[n+](C)c1.O=S(=O)([N-]S(=O)(=O)C(F)(F)F)C(F)(F)F, the activity coefficient is 0.911 ± 0.058 (318.15 K); 0.951 ± 0.06 (328.15 K); 0.992 ± 0.062 (338.15 K); 1.03 ± 0.06 (348.15 K); 1.07 ± 0.07 (358.15 K); 1.11 ± 0.07 (368.15 K).

On to `C1COCCO1` [1,4-dioxane] + CCCCCCCCCCCCn1cc[n+](C)c1.O=S(=O)([N-]S(=O)(=O)C(F)(F)F)C(F)(F)F, for which the activity coefficient (318.15 K) came out at 0.474 ± 0.037; the activity coefficient (328.15 K) came out at 0.499 ± 0.038; the activity coefficient (338.15 K) is 0.524 ± 0.039; the activity coefficient (348.15 K) is 0.548 ± 0.04; the activity coefficient (358.15 K) was found to be 0.572 ± 0.041; the activity coefficient (368.15 K) was 0.597 ± 0.042.

In the case of `CCCCO` [butan-1-ol] + CCCCCCCCCCCCn1cc[n+](C)c1.O=S(=O)([N-]S(=O)(=O)C(F)(F)F)C(F)(F)F, the activity coefficient (318.15 K) came out at 1.55 ± 0.1; the activity coefficient (328.15 K) was 1.46 ± 0.1; the activity coefficient (338.15 K) is 1.38 ± 0.09; the activity coefficient (348.15 K) is 1.31 ± 0.09; the activity coefficient (358.15 K) amounted to 1.24 ± 0.08; the activity coefficient (368.15 K) was 1.19 ± 0.08.

Regarding `C1=CCCCC1` [cyclohexene] + CCCCCCCCCCCCn1cc[n+](C)c1.O=S(=O)([N-]S(=O)(=O)C(F)(F)F)C(F)(F)F, the activity coefficient is 1.56 ± 0.1 (318.15 K); 1.59 ± 0.11 (328.15 K); 1.62 ± 0.11 (338.15 K); 1.65 ± 0.11 (348.15 K); 1.68 ± 0.11 (358.15 K); 1.71 ± 0.11 (368.15 K).

Take `CC(C)O` [propan-2-ol] + CCCCCCCCCCCCn1cc[n+](C)c1.O=S(=O)([N-]S(=O)(=O)C(F)(F)F)C(F)(F)F: the activity coefficient reads like this: (318.15 K) 1.34 ± 0.09; (328.15 K) 1.26 ± 0.08; (338.15 K) 1.18 ± 0.08; (348.15 K) 1.12 ± 0.07; (358.15 K) 1.07 ± 0.07; (368.15 K) 1.02 ± 0.06.

For the molecule `CC(C)CO` [2-methyl-1-propanol] + CCCCCCCCCCCCn1cc[n+](C)c1.O=S(=O)([N-]S(=O)(=O)C(F)(F)F)C(F)(F)F, the activity coefficient (318.15 K) stood at 1.52 ± 0.1; the activity coefficient (328.15 K) came to 1.42 ± 0.09; the activity coefficient (338.15 K) stood at 1.34 ± 0.09; the activity coefficient (348.15 K) was 1.26 ± 0.08; the activity coefficient (358.15 K) came out at 1.19 ± 0.08; the activity coefficient (368.15 K) was determined as 1.13 ± 0.07.

Turning to `CCCc1ccccc1` [propylbenzene] + CCCCCCCCCCCCn1cc[n+](C)c1.O=S(=O)([N-]S(=O)(=O)C(F)(F)F)C(F)(F)F, the activity coefficient (318.15 K) came out at 1.1 ± 0.07; the activity coefficient (328.15 K) was determined as 1.15 ± 0.07; the activity coefficient (338.15 K) worked out at 1.21 ± 0.08; the activity coefficient (348.15 K) was found to be 1.25 ± 0.08; the activity coefficient (358.15 K) came to 1.3 ± 0.08; the activity coefficient (368.15 K) was found to be 1.35 ± 0.09.
